For one series, the system named is inflammatory factors. Description: Inflammatory factors in plasma and peritoneal lavage fluid, IL-33-induced acute inflammation in mice (ELISA). The note with it: FIG. 1. Format: in vivo, C57BL/6J mice. On the procedure: IL-33, a member of the IL-1 cytokine family, is the ligand for IL-1 receptor-like 1 or ST2. […] The effect of the compounds on inflammation in the IL-1R signaling pathway was investigated using an acute inflammatory model in mice induced by intraperitoneal injection of IL-33.
Preparation of IL-33 inducer: The mouse recombinant IL-33 powder was prepared as a 1 µg/µL stock solution. When using, 40 µL of the 1 µg/µL IL-33 solution was added to 3960 µL of PBS, mixed well by inversion, to obtain 4 mL of IL-33 solution with a concentration of 1 µg/100 µL, which was prepared freshly before use.

For series [1] the following is noted: mice, 8 hours after last administration.
Experimental: Experimental animals: SPF-grade male C57BL/6J mice aged 6-8 weeks.
Preparation of compound: 10% DMSO + 50% PEG400 + 40% sterile water for injection. The compound was dissolved in DMSO, followed by the addition of PEG400 and sterile water for injection, and the solution was adjusted to clarity with 6N hydrochloric acid.
Compound administration and IL-33 inflammatory induction: The mice were randomly grouped according to body weight and orally administered with the compound at final doses of 15 mg/kg, 50 mg/kg, and 150 mg/kg, twice daily. At 4 hours after the last administration of the compound, the mice were intraperitoneally injected with 1 µg/100 µL PBS of IL-33 for inflammatory induction.
Termination, sample collection, and data: Plasma, peritoneal lavage fluid, and spleen were collected for subsequent sample index detection.
The experiment was terminated 8 hours after the last administration. The mice were anesthetized, and cardiac blood was collected. The blood samples were anticoagulated with EDTA-K2, centrifuged at 3500 rpm for 15 minutes, and the upper plasma was collected.
Another series addresses T1, IRAK4 (Homo sapiens, UniProt Q9NWZ3).
T1 sequence (Q9NWZ3 1-460): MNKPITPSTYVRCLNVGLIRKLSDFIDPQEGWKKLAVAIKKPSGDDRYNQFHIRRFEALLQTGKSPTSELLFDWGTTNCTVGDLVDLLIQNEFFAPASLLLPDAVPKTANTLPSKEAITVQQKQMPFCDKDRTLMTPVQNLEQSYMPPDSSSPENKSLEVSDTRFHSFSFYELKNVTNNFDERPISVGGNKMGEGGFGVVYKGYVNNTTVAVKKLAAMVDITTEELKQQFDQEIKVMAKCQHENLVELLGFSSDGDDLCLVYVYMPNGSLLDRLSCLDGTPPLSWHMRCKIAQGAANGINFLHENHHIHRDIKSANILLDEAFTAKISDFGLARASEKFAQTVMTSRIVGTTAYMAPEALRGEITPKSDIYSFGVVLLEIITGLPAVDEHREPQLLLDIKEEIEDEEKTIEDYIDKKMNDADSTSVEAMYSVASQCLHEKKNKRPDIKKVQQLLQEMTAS
Format: cell-based. Set-up: endogenous in cells; host or cells: OCI-LY3. The note with it: read-out: OCI-LY3 DC50; OCI-LY3 cells.

Series [2] is described as follows: Mouse pharmacokinetics, oral (Experiment 1). Format: in vivo, C57BL/6 mice. The note with it: mice, PO 100 mg/kg, fasted overnight, plasma. How it is done: C57BL/6 mice were used as test animals to study the pharmacokinetic behavior of the compounds of the present disclosure in mouse plasma after oral administration at a dose of 100 mg/kg.
C57BL/6, male, transferred from the animal repository of the laboratory institution (999M-018).
Three male C57BL/6 mice were fasted overnight (10-14 hours) with free access to water one day before administration. The mice were fed 4 hours after administration. The dose for PO administration was 100 mg/kg, with an administration volume of 20 mL/kg.
After administration, blood samples (0.03 mL) were collected from the mice via venipuncture at 0.083, 0.25, 0.5, 1, 2, 4, 8, and 24 hours. The samples were placed in EDTA-K2 tubes and centrifuged at 6800 rpm for 5 minutes at 2-8°C. The plasma was separated and stored at -80°C.
• 1) 10 µL of plasma sample was added to 200 µL of methanol for precipitation. After mixing, the mixture was centrifuged at 18000 g for 10 minutes. • 2) The processed supernatant solution was taken for LC/MS/MS analysis to determine the concentration of the test compound.
• Liquid phase conditions: Shimadzu LC-30AD pump • Mass spectrometry conditions: AB Sciex API 5500 mass spectrometer • Chromatographic column: Phenomenex Kinetex 2.6 µm C18 50 3.0 mm • Mobile phase: Solution A was 0.1% formic acid in water, and solution B was 0.1% formic acid in acetonitrile • Flow rate: 0.6 mL/min • Elution time: Gradient elution for 0-1.6 minutes.
The main pharmacokinetic parameters were calculated using WinNonlin 8.0.

Series [3] in a line: Dog pharmacokinetics, oral gavage (Experiment 3). The note with it: Beagle dogs, oral gavage 2.5 mg/kg, plasma. Format: in vivo. On the procedure: Healthy Beagle dogs, male, weighing about 8-10 kg, 3 animals per group.
The animals were not fasted and had free access to water.
Venous blood (0.5-0.8 mL) was collected at 15 minutes, 30 minutes, 1 hour, 2 hours, 4 hours, 8 hours, and 24 hours after oral gavage administration, placed in K2EDTA tubes, and centrifuged at 4°C to separate plasma. The concentration of the compound in plasma was determined by liquid chromatography-tandem mass spectrometry.
The main pharmacokinetic parameters were calculated using WinNonlin. […] Table 8. Pharmacokinetic parameters of some compounds of the present disclosure administered orally to dogs

A short description of series [4]: Mouse pharmacokinetics, oral (Experiment 2). Format: in vivo, C57BL/6 mice. The note with it: mice, PO 100 mg/kg, free access to food, plasma. On the procedure: Two male C57BL/6 mice were allowed free access to food and water. The dose for PO administration was 100 mg/kg, with an administration volume of 10 mL/kg.
After administration, blood samples (0.025 mL) were collected from the mice via venipuncture at 0.083, 0.25, 0.5, 1, 2, 4, 8, and 24 hours. The samples were placed in EDTA-K2 tubes and centrifuged at 2000 g for 5 minutes at 4°C. The plasma was separated and stored at -70°C.
• 1) 5 µL of plasma sample was added to 100 µL of acetonitrile for precipitation. After mixing, the mixture was centrifuged at 5800 rmp for 10 minutes. • 2) The processed supernatant solution was taken for LCMS/MS analysis to determine the concentration of the test compound.
• LC-MS/MS instrument: LCMS/MS-45 (Triple Quad 6500+) • Chromatographic column: Waters BEH C18 (2.1 × 50 mm, 1.7 µm) • Mobile phase: Solution A was H2O-0.025% FA-1 mM NH4OAc, and Solution B was MeOH-0.025% FA-1 mM NH4OAc. • Flow rate: 0.6 mL/min • Elution time: Gradient elution for 0-2.5 minutes.
The main pharmacokinetic parameters were calculated using WinNonlin 8.2. […] Table 7. Pharmacokinetic parameters of some compounds of the present disclosure administered orally to mice

SMILES strings stand for the structures. Where two headings read alike, the source gives them in different places.

Take `Cn1c(=O)n(C2CCC(=O)NC2=O)c2cccc(C#CCCN3CCC4(CC3)CC(n3cc(NC(=O)c5cnn6ccc(N7C[C@H]8C[C@@H]7CO8)nc56)c(C(F)F)n3)C4)c21` (some centres unmarked) [Example 22]: in the series on inflammatory factors (at comparable drug concentrations in plasma), the “anti-inflammatory effect compared with KT474” value is given as “superior”. The “inflammatory factors in mouse plasma and peritoneal lavage fluid” value in the series with inflammatory factors (mice, PO 15, 50 and 150 mg/kg, IL-33 induction) is “concentration-dependent reduction”. Also, in series [1] (PO 15 mpk twice daily), the “C8hr Plasma” value turned out to be 54 ng/mL and the “C8hr Spleen” value amounted to 369 ng/mL. Moreover, in series [1] (PO 50 mpk twice daily), the “C8hr Plasma” value stood at 517 ng/mL and the “C8hr Spleen” value is listed as 6135 ng/mL. Further, in series [1] (PO 150 mpk twice daily), the “C8hr Plasma” value is recorded as 1392 ng/mL and the “C8hr Spleen” value was determined as 16257 ng/mL. Besides, at IRAK4, the DC50 is 1.3 nM. In series [2], this molecule registered an AUC(0-inf) of 18400 ng·h/mL, an AUC(0-t) at 24 h of 17600 ng·h/mL, a Cmax of 1400 ng/mL and an MRT inf of 8 h. Besides, in series [2], the time to peak (Tmax) was 1.7 h and the half-life was 5.4 h. Further, in series [3], the AUC(0-t) at 24 h came to 1190 ng·h/mL, the Cmax was 100 ng/mL, the MRT inf worked out at 11.2 h and the half-life is 7.6 h.

Regarding `Cn1c(=O)n(C2CCC(=O)NC2=O)c2cccc(C#CCOC34CCC(CN5CCC6(CC5)CC(n5cc(NC(=O)c7cnn8ccc(N9C[C@H]%10C[C@@H]9CO%10)nc78)c(C(F)F)n5)C6)(CC3)CC4)c21` (some centres unmarked) [Example 52], in series [4], the AUC(0-t) at 24 h stood at 40100 ng·h/mL, the concentration peaked (Cmax) at 2200 ng/mL and the Tmax turned out to be 8 h. For the same molecule, in series [3], the AUC(0-t) at 24 h was 1160 ng·h/mL, the Cmax was 78 ng/mL, the MRT inf came out at 20.2 h and the half-life was 13.4 h.

The record behind these values is patent EP4656640A1, “IRAK4 DEGRADER AND USE THEREOF” (Shanghai Qilu Pharmaceutical Research and Development …, priority 2023, dated 2024).
